The results in this text go back to patent publication US5637731A (priority 1996, dated 1997).

The term Ki denotes a measure of affinity in units of concentration, obtained from inhibition or displacement.

For test [1], the target named is muscarinic cholinergic receptor. Format: binding, rat. The settings on record: pH 7.4.
Test [2] shares this target. The test is described as follows: [^3 H]-Cis-methyldioxolane (^3 H-CD) Binding Assay (High Affinity). The settings on record: rat cerebral cortex, ^3 H-CD 1.0 nM, 25° C., 120 minutes, pH 7.4; high affinity agonist binding.
Where [3] appears, read: rat cerebral cortex, ^3 H-QNB 0.25 nM, 25° C., 120 minutes.

Structures can show the parent of a compound that is named as a salt. Where two headings read alike, the source gives them in different places. Where only a bound is given, the exact number is not on record here.

Regarding `CC1CCN(CC#CCN(C)C)C1=O` (racemic) [Racemic 1-[4-(1-Dimethylamino)-2-butynyl]-3-methyl-2-pyrrolidinone], the values for the Ki in test [1] (setting [3]) and in test [2] were 21 µM and 0.41 µM, respectively.
As for `CCCCCCCCCC(=O)O[C@@H]1CCN(CC#CCN(C)C)C1=O` [(R)-Decanoic acid 1-[4-(dimethylamino)-2-butynyl]-2-oxo-3-pyrrolidinyl ester], the Ki in test [1] (setting [3]) is above 100 µM; in test [2] it was 0.73 µM.
Consider `O=C1[C@@H](O)CCN1CC#CCN1CCC[C@H]1CO` [[S-(R*,R*)]-3-Hydroxy-1-[4-[2-(hydroxymethyl)-1-pyrrolidinyl]-2-butynyl]-2-pyrrolidinone], for which the Ki in test [1] (setting [3]) is above 100 µM; in test [2], 34.3 µM.
`CC(C)(C)C(=O)O[C@@H]1CCN(CC#CC[N+](C)(C)C)C1=O` [(R)-3-[3-(2,2-Dimethyl-1-oxopropoxy)-2-oxo-1-pyrrolidinyl]-N,N, N-trimethyl-2-butyn-1-aminium iodide]: the Ki in test [1] (setting [3]) is above 100 µM; in test [2] it was 1.22 µM.
For the compound `COC(=O)O[C@@H]1CCN(CC#CCN(C)C)C1=O` [(R)-Carbonic acid 1-[4-(dimethylamino)-2-butynyl]-2-oxo-3-pyrrolidinyl methyl ester monohydrochloride], the Ki in test [1] (setting [3]) was found to be 52 µM; in test [2], 3.07 µM.
For the compound `O=C1C(O)CCN1CC#CCn1ccnc1` (stereo not drawn) [1-[4-(1H-Imidazol-1-yl)-2-butynyl]-3-hydroxy-2-pyrrolidinone], the Ki in test [1] (setting [3]) was above 100 µM; in test [2], 2 µM.
Regarding `CS[C@H]1CCN(CC#CCN(C)C)C1=O` [(S)-1-[4-(Dimethylamino)-2-butynyl]-3-(methylthio)-2-pyrrolidinone], the Ki in test [1] (setting [3]) was above 100 µM; in test [2], 6.4 µM.
With `CS[C@@H]1CCN(CC#CCN2CCCC2)C1=O` [(R)-3-(Methylthio)-1-[4-(1-pyrrolidinyl)-2-butynyl]-2-pyrrolidinone], the results for the Ki in test [1] (setting [3]) and in test [2] were 3.6 µM and 1.4 µM, respectively.
`CC(C)(C)[Si](C)(C)OC[C@H]1CCCN1CC#CCN1CC[C@H](O)C1=O` [[S-(R*,S*)]-1-[4-[2-[[[(1,1-Dimethylethyl)dimethylsilyl]-oxy]methyl]-1-pyrrolidinyl]-2-butynyl]-3-hydroxy-2-pyrrolidinone]: the Ki in test [1] (setting [3]) is 198 µM; in test [2], 1.7 µM.
The matching figures for `CS[C@@H]1CCN(CC#CCN(C)C)C1=O` [(R)-1-[4-(Dimethylamino)-2-butynyl]-3-(methylthio)-2-pyrrolidinone]: 108 µM and 6.1 µM.
For `[N-]=[N+]=N[C@@H]1CCN(CC#CCN2CCCC2)C1=O` [(R)-3-Azido-1-[4-(1-pyrrolidinyl)-2-butynyl]-2-pyrrolidinone], the Ki in test [1] (setting [3]) was 28 µM; in test [2], 0.21 µM.
`CC(C)(C)[Si](C)(C)O[C@H]1CCN(CC#CCN2CCC2)C1=O` [(S)-1-[4-(1-Azetidinyl)-2-butynyl]-3-[[(1,1-dimethylethyl)-dimethylsilyl]oxy]-2-pyrrolidinone]: the Ki in test [1] (setting [3]) worked out at 5.8 µM; in test [2], 5.6 µM.
Take `CCCCCCCCCC(=O)O[C@@H]1CCN(CC#CC[N+](C)(C)C)C1=O` [(R)-4-[2-Oxo-3-[(1-oxodecyl)-oxy]-1-pyrrolidinyl]-N,N, N-trimethyl-2-butyn-1-aminium iodide]: the Ki in test [1] (setting [3]) stood at 0.2 µM; in test [2], 0.05 µM.
`CC1CCN(CC#CCn2ccnc2)C1=O` (racemic) [Racemic 1-[4-(1H-imidazol-1-yl)-2-butynyl]-3-methyl-2-pyrrolidinone]: the Ki came out at 6.7 µM in test [1] (setting [3]) and 0.057 µM in test [2].
In the case of `CC(C)C(=O)O[C@@H]1CCN(CC#CC[N+](C)(C)C)C1=O` [(R)-N,N, N-Trimethyl-4-[3-(2-methyl-1-oxopropoxy)-2-oxo-1-pyrrolidinyl]-2-butyn-1 aminium iodide], the Ki in test [1] (setting [3]) came out at 45 µM; in test [2], 0.24 µM.
Take `CN(C)CC#CCN1CC[C@H](O[Si](C)(C)C(C)(C)C)C1=O` [(S)-1-[4-(Dimethylamino)-2-butynyl]-3-[[(1,1-dimethylethyl)-dimethylsilyl]oxy]-2-pyrrolidinone]: the Ki in test [1] (setting [3]) came out at 14.3 µM; in test [2], 18.2 µM.
On to `CCCCCCOC(=O)O[C@H]1CCN(CC#CCN2CCCC2)C1=O` [(S)-Carbonic acid hexyl 2-oxo-1-[4-(1-pyrrolidinyl)-2-butynyl]-3-pyrrolidinyl ester], for which the Ki in test [1] (setting [3]) is 1.7 µM; in test [2], 0.015 µM.
With `CCCCCCCCOC(=O)O[C@@H]1CCN(CC#CC[N+](C)(C)C)C1=O` [(R)-N,N, N-Trimethyl-4-[3-[[(octyloxy)carbonyl]oxy]-2-oxo-1-pyrrolidinyl]-2-butyn-1-aminium iodide], the Ki in test [1] (setting [3]) amounted to 0.2 µM; in test [2] it was 0.01 µM.
With `COC(=O)O[C@H]1CC(=O)N(CC#CCN2CCCC2)C1` [(S)-Carbonic acid methyl 2-oxo-1-[4-(1-pyrrolidinyl)-2-butynyl]-4-pyrrolidinyl ester], the Ki in test [1] (setting [3]) amounted to 1.8 µM; in test [2], 0.85 µM.
As for `CC1(O)CCN(CC#CCN2CCCC2)C1=O` (racemic) [Racemic-3-Hydroxy-3-methyl-1-[4-(1-pyrrolidinyl)-2-butynyl]-2-pyrrolidinone, Racemic 3-hydroxy-3-methyl-1-[4-(1-pyrrolidinyl) 2-butynyl]-2-pyrrolidinone], the Ki in test [1] (setting [3]) was 8.6 µM; in test [2] it was 5.7 µM.
`CC1CCN(CC#CCN2CCCC2CO[Si](C)(C)C(C)(C)C)C1=O` (stereo not drawn) [[R-[(R*,R* and R*,S*)]]-1-[4-[2-[[[(1,1-dimethylethyl)dimethylsilyl]oxy]methyl]-1-pyrrolidinyl]-2-butynyl]-3-methyl-2-pyrrolidinone]: the inhibition constant Ki in test [1] (setting [3]) came to 2.5 µM; in test [2] it was 5.6 µM.
The matching figures for `CCCCCCCCNC(=O)O[C@H]1CC(=O)N(CC#CCN2CCCC2)C1` [(S)-Octylcarbamic acid 2-oxo-1-[4-(1-pyrrolidinyl)-2-butynyl]-4-pyrrolidinyl ester]: 0.13 µM and 0.35 µM.
As to `CCN(CC)CC#CCN1CC[C@H](O[Si](C)(C)C(C)(C)C)C1=O` [(S)-1-[4-(diethylamino)-2-butynyl]-3-[[(1,1-dimethylethyl)dimethylsily]oxy]-2-pyrrolidinone], the Ki was determined as 7.6 µM in test [1] (setting [3]) and 15.4 µM in test [2].
With `CN(C)C(=O)O[C@H]1CCN(CC#CCN2CCCC2)C1=O` [(S)-Dimethylcarbamic acid 2-oxo-1-[4-(1-pyrrolidinyl)-2-butynyl]-3-pyrrolidinyl ester], the Ki in test [1] (read-out: ^3 H-QNB Ki) was 40.3 µM; in test [2] it was 9.56 µM.
Take `CN(CC#CCN1CC[C@H](O)C1=O)CCO` [(S)-3-Hydroxy-1-[4-[(2-hydroxyethyl)methylamino]-2-butynyl]-2-pyrrolidinone]: the Ki was above 100 µM in test [1] (setting [3]) and 1.82 µM in test [2].
For the compound `CC(=O)O[C@H]1CCN(CC#CCN(C)CCCCO)C1=O` [(S)-3-(Acetyloxy)-1-[4-[(4-hydroxybutyl)methylamino]-2-butynyl]-2-pyrrolidinone], the Ki in test [1] (setting [3]) is above 100 µM; in test [2], 8.21 µM.
Take `CS[C@H]1CCN(CC#CC[N+](C)(C)C)C1=O` [(S)-N,N, N-Trimethyl-4-[3-(methylthio)-2-oxo1-pyrrolidinyl]-2-butyn-1-aminium iodide]: the Ki in test [1] (setting [3]) was determined as 1.8 µM; in test [2], 0.31 µM.
